35 molecules from patent US20080051419A1, “AMINE DERIVATIVES USEFUL AS ANTICANCER AGENTS” (PFIZER INC., priority 2006, published 2008) can be followed below.

This experiment deals with T1, Akt1 (Homo sapiens, UniProt P31749, S473D).
T1 construct: The version of Akt used in these studies lacks the pleckstrin homology (PH) domain
Nature of the experiment: Akt1 kinase assay, fluorescence polarization (IMAP). The format is biochemical. An outline of the steps:
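His-tagged Akt1 lacking the PH domain, Thr308-prephosphorylated, 1.5 ng per reaction, with 4 μM ATP and 40 nM TAMRA-Crosstide (solution concentrations) in Tris pH 7.5/MgCl2/DTT buffer. Incubated 30 min at ambient temperature; IMAP fluorescence polarization read (544/615 nm). IC50 after subtraction of no-enzyme background.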
In general terms: Fluorescence polarisation rises when a labelled molecule tumbles more slowly, as on binding a larger partner.

[1] abbreviates: Table 1, concentration bins, read-out: Concentration Range at which exemplary compounds of formula I inhibit Akt kinase activity.
The mark [2] stands for this setting: average Akt kinase activity (IC50), read-out: Avg Akt kinase, μM (50% inhibition).
[3] abbreviates: read-out: Avg Akt kinase, μM (50% inhibition).

SMILES strings stand for the structures. Like-named read-outs stand apart in the source and are kept apart here.

T1 sequence (P31749 118-480 S473D limits assumed, species assumed): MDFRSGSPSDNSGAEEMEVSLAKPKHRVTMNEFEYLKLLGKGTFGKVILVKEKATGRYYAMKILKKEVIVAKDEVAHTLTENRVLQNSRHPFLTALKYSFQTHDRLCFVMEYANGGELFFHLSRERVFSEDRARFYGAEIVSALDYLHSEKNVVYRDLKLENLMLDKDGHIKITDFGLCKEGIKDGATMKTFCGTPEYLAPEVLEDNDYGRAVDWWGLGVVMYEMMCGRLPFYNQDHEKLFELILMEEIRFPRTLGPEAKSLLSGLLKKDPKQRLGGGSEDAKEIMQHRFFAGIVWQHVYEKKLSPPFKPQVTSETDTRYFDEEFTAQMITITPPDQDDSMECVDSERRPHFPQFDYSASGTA

For the molecule `CCc1c[nH]c2ncnc(N3CC[C@](N)(CNC(=O)c4ccc(Cl)cc4F)C3)c12` [Example 103, N-{[(3S)-3-amino-1-(5-ethyl-7H-pyrrolo[2,3-d]pyrimidin-4-yl)pyrrolidin-3-yl]methyl}-4-chloro-2-fluorobenzamide], the IC50 runs as follows: under setting [1], 0.00251 to 0.01 µM; under setting [2], 0.00487 µM.
As for `N[C@]1(CNC(=O)c2cccc(F)c2)CCN(c2ncnc3[nH]cc(Cl)c23)C1` [Example 104, N-{[(3S)-3-amino-1-(5-chloro-7H-pyrrolo[2,3-d]pyrimidin-4-yl)pyrrolidin-3-yl]methyl}-3-fluorobenzamide], the IC50 under setting [1] was in the range of 0.00251 to 0.01 µM and the IC50 under setting [2] is 0.00674 µM.
Regarding `CCc1c[nH]c2ncnc(N3CC[C@](N)(CNC(=O)c4cccc(F)c4)C3)c12` [Example 105, N-{[(3S)-3-amino-1-(5-ethyl-7H-pyrrolo[2,3-d]pyrimidin-4-yl)pyrrolidin-3-yl]methyl}-3-fluorobenzamide], the IC50 runs as follows: under setting [1], 0.0101 to 0.1 µM; under setting [2], 0.0107 µM.
For `N[C@]1(CNC(=O)c2cc(F)ccc2F)CCN(c2ncnc3[nH]cc(Cl)c23)C1` [Example 106, N-{[(3S)-3-amino-1-(5-chloro-7H-pyrrolo[2,3-d]pyrimidin-4-yl)pyrrolidin-3-yl]methyl}-2,5-difluorobenzamide] the same measures were 0.00025 to 0.0025 µM and 0.0025 µM.
For `N[C@]1(CNC(=O)c2ccc(F)cc2Cl)CCN(c2ncnc3[nH]cc(Cl)c23)C1` [Example 107, N-{[(3S)-3-amino-1-(5-chloro-7H-pyrrolo[2,3-d]pyrimidin-4-yl)pyrrolidin-3-yl]methyl}-2-chloro-4-fluorobenzamide] the same measures were 0.00025 to 0.0025 µM and 0.0011 µM.
Take `N[C@]1(CNC(=O)c2ccccc2)CCN(c2ncnc3[nH]cc(Cl)c23)C1` [Example 108, N-{[(3S)-3-amino-1-(5-chloro-7H-pyrrolo[2,3-d]pyrimidin-4-yl)pyrrolidin-3-yl]methyl}benzamide]: the IC50 is 0.00251 to 0.01 µM under setting [1] and 0.00251 µM under setting [2].
For `Cc1c[nH]c2ncnc(N3CC[C@](N)(CNC(=O)c4ccccc4)C3)c12` [Example 109, N-{[(3S)-3-amino-1-(5-methyl-7H-pyrrolo[2,3-d]pyrimidin-4-yl)pyrrolidin-3-yl]methyl}benzamide] the same measures were 0.00251 to 0.01 µM and 0.00586 µM.
As for `CCc1c[nH]c2ncnc(N3CC[C@](N)(CNC(=O)c4ccccc4)C3)c12` [Example 110, N-{[(3S)-3-amino-1-(5-ethyl-7H-pyrrolo[2,3-d]pyrimidin-4-yl)pyrrolidin-3-yl]methyl}benzamide], the IC50 reads like this: under setting [1], 0.00251 to 0.01 µM; under setting [2], 0.0073 µM.
For `N#Cc1c[nH]c2ncnc(N3CC[C@](N)(CNC(=O)c4ccccc4)C3)c12` [Example 111, N-{[(3S)-3-amino-1-(5-cyano-7H-pyrrolo[2,3-d]pyrimidin-4-yl)pyrrolidin-3-yl]methyl}benzamide] the same measures were 0.0101 to 0.1 µM and 0.0265 µM.
As to `N[C@]1(CNC(=O)c2cccc(Cl)c2)CCN(c2ncnc3[nH]cc(Cl)c23)C1` [Example 112, N-{[(3S)-3-amino-1-(5-chloro-7H-pyrrolo[2,3-d]pyrimidin-4-yl)pyrrolidin-3-yl]methyl}-3-chlorobenzamide], the IC50 under setting [1] was 0.00251 to 0.01 µM and the IC50 under setting [2] was found to be 0.00376 µM.
For `N[C@]1(CNC(=O)c2c(F)cccc2Cl)CCN(c2ncnc3[nH]cc(Cl)c23)C1` [Example 113, N-{[(3S)-3-amino-1-(5-chloro-7H-pyrrolo[2,3-d]pyrimidin-4-yl)pyrrolidin-3-yl]methyl}-2-chloro-6-fluorobenzamide], the IC50 by setting is: under setting [1], 0.0101 to 0.1 µM; under setting [2], 0.0332 µM.
In the case of `Cc1c[nH]c2ncnc(N3CC[C@](N)(CNC(=O)c4ccc(F)c(F)c4)C3)c12` [Example 114], the IC50 runs as follows: under setting [1], 0.0101 to 0.1 µM; under setting [2], 0.0176 µM.
For `Cc1c[nH]c2ncnc(N3CC[C@](N)(CNC(=O)c4cccc(Cl)c4)C3)c12` [Example 115] the same measures were 0.00251 to 0.01 µM and 0.00998 µM.
For `Cc1c[nH]c2ncnc(N3CC[C@](N)(CNC(=O)c4c(F)cccc4Cl)C3)c12` [Example 116] the same measures were 0.0101 to 0.1 µM and 0.0681 µM.
For `Cc1cccc(C(=O)NC[C@@]2(N)CCN(c3ncnc4[nH]cc(C)c34)C2)c1Cl` [Example 117] the same measures were 0.0101 to 0.1 µM and 0.0135 µM.
With `CCc1c[nH]c2ncnc(N3CC[C@](N)(CNC(=O)c4cccc(C)c4Cl)C3)c12` [Example 118], the IC50 is 0.0101 to 0.1 µM under setting [1] and 0.0124 µM under setting [2].
For `Cc1cccc(C(=O)NC[C@@]2(N)CCN(c3ncnc4[nH]cc(Cl)c34)C2)c1Cl` [Example 119] the same measures were 0.00251 to 0.01 µM and 0.00785 µM.
Consider `Cc1c[nH]c2ncnc(N3CC[C@](N)(CNC(=O)c4c(F)ccc(F)c4F)C3)c12` [Example 120, N-{[(3S)-3-amino-1-(5-methyl-7H-pyrrolo[2,3-d]pyrimidin-4-yl)pyrrolidin-3-yl]methyl}-2,3,6-trifluorobenzamide], for which the IC50 was 0.0101 to 0.1 µM under setting [1] and 0.0255 µM under setting [2].
On to `Cc1cccc(F)c1C(=O)NC[C@@]1(N)CCN(c2ncnc3[nH]cc(C)c23)C1` [Example 121], for which the IC50 runs as follows: under setting [1], 0.0101 to 0.1 µM; under setting [2], 0.0418 µM.
Regarding `Cc1cccc(F)c1C(=O)NC[C@@]1(N)CCN(c2ncnc3[nH]cc(Cl)c23)C1` [Example 122], the IC50 was 0.0101 to 0.1 µM under setting [1] and 0.029 µM under setting [2].
In the case of `Cc1c[nH]c2ncnc(N3CC[C@](N)(CNC(=O)c4cccc(F)c4Cl)C3)c12` [Example 123, N-{[(3S)-3-amino-1-(5-methyl-7H-pyrrolo[2,3-d]pyrimidin-4-yl)pyrrolidin-3-yl]methyl}-2-chloro-3-fluorobenzamide], the IC50 by setting is: under setting [1], 0.00251 to 0.01 µM; under setting [2], 0.00526 µM.
`N[C@]1(CNC(=O)c2cccc(F)c2Cl)CCN(c2ncnc3[nH]cc(Cl)c23)C1` [Example 124, N-{[(3S)-3-amino-1-(5-chloro-7H-pyrrolo[2,3-d]pyrimidin-4-yl)pyrrolidin-3-yl]methyl}-2-chloro-3-fluorobenzamide]: the IC50 runs as follows: under setting [1], 0.00251 to 0.01 µM; under setting [2], 0.00691 µM.
For `CCc1c[nH]c2ncnc(N3CC[C@](N)(CNC(=O)c4cccc(F)c4Cl)C3)c12` [Example 125, N-{[(3S)-3-amino-1-(5-ethyl-7H-pyrrolo[2,3-d]pyrimidin-4-yl)pyrrolidin-3-yl]methyl}-2-chloro-3-fluorobenzamide] the same measures were 0.0101 to 0.1 µM and 0.0139 µM.
Turning to `Cc1c[nH]c2ncnc(N3CC[C@](N)(CNC(=O)c4c(F)cccc4F)C3)c12` [Example 126, N-{[(3S)-3-amino-1-(5-methyl-7H-pyrrolo[2,3-d]pyrimidin-4-yl)pyrrolidin-3-yl]methyl}-2,6-difluorobenzamide], the IC50 is, setting by setting: under setting [1], 0.0101 to 0.1 µM; under setting [2], 0.0199 µM.
For `Cc1ccccc1C(=O)NC[C@@]1(N)CCN(c2ncnc3[nH]cc(C)c23)C1` [Example 127, N-{[(3S)-3-amino-1-(5-methyl-7H-pyrrolo[2,3-d]pyrimidin-4-yl)pyrrolidin-3-yl]methyl}-2-methylbenzamide] the same measures were 0.0101 to 0.1 µM and 0.0362 µM.
In the case of `CCc1c[nH]c2ncnc(N3CC[C@](N)(CNC(=O)c4ccccc4Cl)C3)c12` [Example 128], the IC50 under setting [1] fell in the range of 0.0101 to 0.1 µM and the IC50 under setting [2] worked out at 0.0147 µM.
In the case of `N[C@]1(CNC(=O)c2ccc(F)c(F)c2)CCN(c2ncnc3[nH]cc(Cl)c23)C1` [Example 129, N-{[(3S)-3-amino-1-(5-chloro-7H-pyrrolo[2,3-d]pyrimidin-4-yl)pyrrolidin-3-yl]methyl}-3,4-difluorobenzamide], the IC50 runs as follows: under setting [1], 0.00251 to 0.01 µM; under setting [2], 0.00334 µM.
For the molecule `N[C@]1(CNC(=O)c2c(F)cccc2F)CCN(c2ncnc3[nH]cc(Cl)c23)C1` [Example 130], the IC50 under setting [1] fell in the range of 0.00251 to 0.01 µM and the IC50 under setting [2] was determined as 0.00906 µM.
On to `Cc1ccccc1C(=O)NC[C@@]1(N)CCN(c2ncnc3[nH]cc(Cl)c23)C1` [Example 131], for which the IC50 under setting [1] is 0.00251 to 0.01 µM and the IC50 under setting [2] was 0.01 µM.
As for `CCc1c[nH]c2ncnc(N3CC[C@](N)(CNC(=O)c4c(F)ccc(F)c4F)C3)c12` [Example 132], the IC50 under setting [1] lay in the range of 0.0101 to 0.1 µM and the IC50 under setting [2] came to 0.0175 µM.
`CCc1c[nH]c2ncnc(N3CC[C@](N)(CNC(=O)c4cccc(Cl)c4)C3)c12` [Example 133]: the IC50 was 0.00251 to 0.01 µM under setting [1] and 0.00447 µM under setting [2].
As to `CNC1(CNC(=O)c2ccccc2)CCN(c2ncnc3[nH]cc(Cl)c23)C1` (stereo not shown) [Example 194], the IC50 reads like this: under setting [1], 0.0101 to 0.1 µM; under setting [3], 0.0897 µM.
For the molecule `Cc1c[nH]c2ncnc(N3CCC(N)(CN(CCN(C)C)C(=O)Nc4ccccc4)C3)c12` (stereo not shown) [Example 195, 1-{[3-amino-1-(5-methyl-7H-pyrrolo[2,3-d]pyrimidin-4-yl)pyrrolidin-3-yl]methyl}-1-[2-(dimethylamino)ethyl]-3-phenylurea], the IC50 under setting [1] is 0.101 to 10 µM and the IC50 under setting [3] was found to be 0.141 µM.
For `Cc1c[nH]c2ncnc(N3CCC(N)(CN(C)C(=O)c4ccc(Cl)cc4)C3)c12` (stereo not shown) [Example 196, N-((3-amino-1-(5-methyl-7H-pyrrolo[2,3-d]pyrimidin-4-yl)pyrrolidin-3-yl)methyl)-4-chloro-N-methylbenzamide], the IC50 by setting is: under setting [1], 0.101 to 10 µM; under setting [3], 0.123 µM.
For the molecule `Cc1c[nH]c2ncnc(N3CCC(N)(CN(C)C(=O)c4ccccc4F)C3)c12` (stereo not shown) [Example 197, N-((3-amino-1-(5-methyl-7H-pyrrolo[2,3-d]pyrimidin-4-yl)pyrrolidin-3-yl)methyl)-2-fluoro-N-methylbenzamide], the IC50 is, setting by setting: under setting [1], 0.101 to 10 µM; under setting [3], 0.148 µM.
